Laboratory results as given in patent publication US20030124151A1, “Pamidronate solution” (Mayne Pharma Pty Ltd., priority 2000, published 2003).

Key:
[1] = pH of one percent solution in distilled water; type: physicochemical
[2] = cited from earlier work

pH of solution [1]	Structure (SMILES)	Solubility in water [2]
approximately 8.3	NCCC(O)(P(=O)(O)O)P(=O)(O)O [pamidronate disodium]	–
–	NCCC(O)(P(=O)(O)O)P(=O)(O)O [Pamidronic acid, (3 amino-1-hydroxypropylidene) bisphosphonic acid]	practically insoluble
